Results on 18 compounds are retold here after patent publication US10428080B2, “TBK/IKK inhibitor compounds and uses thereof” (Merck Patent GmbH, priority 2015, dated 2019).

Assay [1] concerns the target T1, TBK1 (Homo sapiens, UniProt Q9UHD2).
T1 sequence (Q9UHD2 1-729): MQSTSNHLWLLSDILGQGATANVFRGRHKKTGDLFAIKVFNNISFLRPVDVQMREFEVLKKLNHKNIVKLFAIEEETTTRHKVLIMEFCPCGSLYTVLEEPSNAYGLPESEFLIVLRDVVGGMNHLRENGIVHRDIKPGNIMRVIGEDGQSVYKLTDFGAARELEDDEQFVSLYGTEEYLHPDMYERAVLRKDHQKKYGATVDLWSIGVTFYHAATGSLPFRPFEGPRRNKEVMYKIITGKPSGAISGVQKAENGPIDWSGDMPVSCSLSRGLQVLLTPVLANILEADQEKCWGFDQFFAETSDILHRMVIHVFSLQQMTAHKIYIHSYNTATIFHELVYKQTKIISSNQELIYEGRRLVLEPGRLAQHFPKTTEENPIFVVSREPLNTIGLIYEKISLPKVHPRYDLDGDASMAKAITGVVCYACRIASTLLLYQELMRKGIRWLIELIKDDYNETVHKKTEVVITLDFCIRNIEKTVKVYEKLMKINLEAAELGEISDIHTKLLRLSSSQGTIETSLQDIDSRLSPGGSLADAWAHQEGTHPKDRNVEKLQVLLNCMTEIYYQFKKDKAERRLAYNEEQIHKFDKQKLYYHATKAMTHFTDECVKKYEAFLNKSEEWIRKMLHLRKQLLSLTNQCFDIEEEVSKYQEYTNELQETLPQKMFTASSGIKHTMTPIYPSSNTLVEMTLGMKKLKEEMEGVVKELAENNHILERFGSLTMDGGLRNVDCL
Kind of assay: TBK Biochemical Assay. As to conditions: read-out: TBK1 IC50. Here is the method:
Example 482: TBK Biochemical Assay
Test compounds were transferred into Labcyte polypropylene 384 well plates (P055-25) and diluted to 3 mM using DMSO. 3 mM test compounds were dispensed using Labcyte ECHO dose response module into Greiner 784075 plates (columns 3-12 and 13-22, 10 point 1:4) so that high concentration was 30 uM final. 100 uM of a reference compound (1 uM final high concentration). Backfilling was performed if necessary so that all wells contain 1% DMSO final: […]
add 75 nl DMSO/well into columns 1, 2 and 24 using Labcyte Echo. add 75 nl 1.0 mM staurosporine/well into column 23 using Labcyte Echo ([…]) add 4.5 ul enzyme/well using multidrop dispenser add 3 ul substrate/well using multidrop dispenser incubate at 25° C. in Heidolph incubator for 90 min. add 7.5 ul 2× stop buffer using multidrop dispenser read on labchip ez reader II using TBK1.job
(§1) Raw data files were opened in the Caliper LabChip Reviewer program (Version 3.0.265.0 SP2) and peak assignments were adjusted to reflect “substrate first” with the software's post-run analysis options. A spline-fit baseline was applied using the software's analysis algorithm.

For assay [2], the target named is T2, IKKε (Homo sapiens, UniProt Q14164).
T2 sequence (Q14164 1-716): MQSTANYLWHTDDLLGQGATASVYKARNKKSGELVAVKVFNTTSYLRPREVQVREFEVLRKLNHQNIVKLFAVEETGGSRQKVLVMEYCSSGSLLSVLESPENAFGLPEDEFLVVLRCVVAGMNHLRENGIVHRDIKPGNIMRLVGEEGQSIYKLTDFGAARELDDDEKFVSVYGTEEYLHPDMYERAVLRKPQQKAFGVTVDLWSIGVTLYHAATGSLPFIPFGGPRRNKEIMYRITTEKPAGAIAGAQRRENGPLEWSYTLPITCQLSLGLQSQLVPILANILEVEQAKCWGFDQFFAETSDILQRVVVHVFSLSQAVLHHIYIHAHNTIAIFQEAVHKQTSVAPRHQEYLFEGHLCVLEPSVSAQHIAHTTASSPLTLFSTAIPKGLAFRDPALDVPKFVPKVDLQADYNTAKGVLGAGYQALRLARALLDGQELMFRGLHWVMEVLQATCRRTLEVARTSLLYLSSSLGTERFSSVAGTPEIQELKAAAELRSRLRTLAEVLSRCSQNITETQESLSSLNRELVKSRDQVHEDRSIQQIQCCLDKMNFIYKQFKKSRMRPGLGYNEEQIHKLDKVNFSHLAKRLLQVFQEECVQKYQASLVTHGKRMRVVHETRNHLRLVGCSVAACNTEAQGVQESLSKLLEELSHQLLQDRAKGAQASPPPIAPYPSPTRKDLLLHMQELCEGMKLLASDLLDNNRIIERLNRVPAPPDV
Put plainly: IKKe Biochemical Assay. As to conditions: read-out: IKKε IC50. Here is the method: Test compounds were transferred into Labcyte polypropylene 384 well plates (P055-25) and diluted to 3 mM using DMSO. 3 mM test compounds were dispensed using Labcyte ECHO dose response module into (Greiner 784075 plates (columns 3-12 and 13-22, 10 point 1:4) so that high concentration was 30 uM final. 100 uM of a reference compound (1 uM final high concentration). Backfilling was performed if necessary so that all wells contain 1% DMSO final: […]
add 75 nl DMSO/well into columns 1, 2 and 24 using Labcyte Echo. add 75 nl 1.0 mM staurosporine/well into column 23 using Labcyte Echo (10 uM final) add 4.5 ul enzyme/well using multidrop dispenser add 3 ul substrate/well using multidrop dispenser incubate at 25° C. for 90 min. add 7.5 ul 2× stop buffer read on labchip ez reader II using IKKε. job
as §1

SMILES strings stand for the structures. Structures can show the parent of a compound that is named as a salt.

`N#Cc1cc(-c2ccnc3cc(-c4ccc(C(=O)O)cc4)oc23)ccc1N1CC[C@H](F)C1` [Compound 107, 4-{7-[3-Cyano-4-((S)-3-fluoro-pyrrolidin-1-yl)-phenyl]-furo[3,2-b]pyridin-2-yl}-benzoic acid]: the IC50 in assay [1] and in assay [2] was less than 100 nM in each case.

For `COc1cc(C(=O)N2CC3CC2CO3)ccc1-c1cc2nccc(-c3ccc(NC4CCOCC4)c(C#N)c3)c2o1` (stereo not drawn) [Compound 85, 5-{2-[2-Methoxy-4-(2-oxa-5-aza-bicyclo[2.2.1]heptane-5-carbonyl)-phenyl]-furo[3,2-b]pyridin-7-yl}-2-(tetrahydro-pyran-4-ylamino)-benzonitrile], the IC50 in assay [1] and in assay [2] was less than 100 nM throughout.

For `COc1cc(C(=O)N(C)CCCO)ccc1-c1cc2nccc(-c3ccc(NC4CCOCC4)c(C#N)c3)c2o1` [Compound 261, 4-(7-(3-cyano-4-(tetrahydro-2H-pyran-4-ylamino)phenyl)furo[3,2-b]pyridin-2-yl)-N-(3-hydroxypropyl)-3-methoxy-N-methylbenzamide], the IC50 in assay [1] and in assay [2] was less than 100 nM in each case.

With `N#Cc1cc(-c2ccnc3cc(-c4ccc(C(=O)O)cc4)oc23)ccc1OC1CC(CO)(CCl)C1` (stereo not drawn) [Compound 162], the IC50 in assay [1] was 100 to 1000 nM; in assay [2] it was less than 100 nM.

On to `COc1cc(C(=O)N(C)C)ccc1-c1cc2nccc(-c3ccc(CN4CCOCC4)c(C#N)c3)c2o1` [Compound 234, 4-(7-(3-cyano-4-(morpholinomethyl)phenyl)furo[3,2-b]pyridin-2-yl)-3-methoxy-N,N-dimethylbenzamide], for which the concentration for half-maximal inhibition (IC50) in assay [1] and in assay [2] was less than 100 nM each time.

As for `CN(C)C(=O)c1ccc(-c2cc3nccc(-c4ccc(OC5CCOCC5)c(C#N)c4)c3o2)c(OC(F)(F)F)c1` [Compound 241, 4-(7-(3-cyano-4-(tetrahydro-2H-pyran-4-yloxy)phenyl)furo[3,2-b]pyridin-2-yl)-N,N-dimethyl-3-(trifluoromethoxy)benzamide], the IC50 in assay [1] and in assay [2] was less than 100 nM in each case.

In the case of `CCN(CC)C(=O)c1ccc(-c2cc3nccc(-c4ccc(OC5CCOCC5)c(C#N)c4)c3o2)c(OC)c1` [Compound 256, 4-(7-(3-cyano-4-(tetrahydro-2H-pyran-4-yloxy)phenyl)furo[3,2-b]pyridin-2-yl)-N,N-diethyl-3-methoxybenzamide hydrochloride], the IC50 in assay [1] and in assay [2] was less than 100 nM throughout.

Regarding `CN(C)C(=O)c1ccc(-c2cc3nccc(-c4cc(F)c(NC5CCOCC5)c(C#N)c4)c3o2)nc1` [Compound 246], the IC50 in assay [1] and in assay [2] was 100 to 1000 nM each time.

`COc1cc(C(=O)N(C)C)ccc1-c1cc2nccc(-c3ccc(O[C@H]4CCNC4)c(C#N)c3)c2o1` [Compound 121, 4-{7-[3-Cyano-4-((S)-pyrrolidin-3-yloxy)-phenyl]-furo[3,2-b]pyridin-2-yl}-3-methoxy-N,N-dimethyl-benzamide]: the IC50 in assay [1] and in assay [2] was less than 100 nM each time.

Regarding `COc1cc(C(=O)N2CC3COCC3C2)ncc1-c1cc2nccc(-c3ccc(NC4CCOCC4)c(C#N)c3)c2o1` (stereo not drawn) [Compound 421, 5-[2-[6-([hexahydro-1H-furo[3,4-c]pyrrol-5-yl]carbonyl)-4-methoxypyridin-3-yl]furo[3,2-b]pyridin-7-yl]-2-[(oxan-4-yl)amino]benzonitrile], the half-inhibitory concentration (IC50) in assay [1] and in assay [2] was less than 100 nM in each case.

For `COc1cc(C(=O)N(C)C)ccc1-c1cc2ncc(C)c(-c3ccc(OC4CCOCC4)c(C#N)c3)c2o1` [Compound 269, 4-(7-(3-cyano-4-(tetrahydro-2H-pyran-4-yloxy)phenyl)-6-methylfuro[3,2-b]pyridin-2-yl)-3-methoxy-N,N-dimethylbenzamide hydrochloride], the IC50 in assay [1] and in assay [2] was 100 to 1000 nM throughout.

In the case of `COc1cc(C(=O)N(C)C)cnc1-c1cc2ncc(C3CC3)c(-c3ccc(OC4CCOCC4)c(C#N)n3)c2o1` [Compound 357, 6-[7-[6-cyano-5-(oxan-4-yloxy)pyridin-2-yl]-6-cyclopropylfuro[3,2-b]pyridin-2-yl]-5-methoxy-N,N-dimethylpyridine-3-carboxamide hydrochloride], the IC50 in assay [1] and in assay [2] was greater than 5000 nM in each case.

Take `COc1cc(C(=O)N(C)CCO)ncc1-c1cc2nccc(-c3cc(C#N)c(OC4CCOCC4)cn3)c2o1` [Compound 377, 5-[7-[4-cyano-5-(oxan-4-yloxy)pyridin-2-pyridin-2-yl]furo[3,2-b]pyridin-2-yl]-N-(2-hydroxyethyl)-4-methoxy-N-methylpyridine-2-carboxamide]: the IC50 in assay [1] and in assay [2] was 100 to 1000 nM throughout.

As to `COc1cc(C(=O)N2CC3CCCC3C2)ccc1-c1cc2nccc(-c3ccc(NC4CCOCC4)c(C#N)c3)c2o1` (stereo not drawn) [Compound 137, 5-{2-[4-(Hexahydro-cyclopenta[c]pyrrole-2-carbonyl)-2-methoxy-phenyl]-furo[3,2-b]pyridin-7-yl}-2-(tetrahydro-pyran-4-ylamino)-benzonitrile], the 50% inhibitory concentration (IC50) in assay [1] and in assay [2] was less than 100 nM in each case.

With `CN(C)C(=O)c1ccc(-c2cc3nccc(-c4ccc(C5(N6CCOCC6)CC5)c(C#N)c4)c3o2)cc1` [Compound 287, 4-(7-[3-cyano-4-[1-(morpholin-4-yl)cyclopropyl]phenyl]furo[3,2-b]pyridin-2-yl)-N,N-dimethylbenzamide hydrochloride], the IC50 in assay [1] and in assay [2] was greater than 5000 nM in each case.

Consider `CCc1cc(C(=O)N(C)C)ccc1-c1cc2nccc(-c3ccc(OC4CCOCC4)c(C#N)c3)c2o1` [Compound 263, 4-(7-(3-cyano-4-(tetrahydro-2H-pyran-4-yloxy)phenyl)furo[3,2-b]pyridin-2-yl)-3-ethyl-N,N-dimethylbenzamide], for which the half-maximal inhibitory concentration (IC50) in assay [1] and in assay [2] was less than 100 nM throughout.

Consider `COc1cc(C(=O)N(C)C)cnc1-c1cc2ncc(C)c(-c3ccc(OC4CCOCC4)c(C#N)c3)c2o1` [Compound 320, 6-(7-(3-cyano-4-(tetrahydro-2H-pyran-4-yloxy)phenyl)-6-methylfuro[3,2-b]pyridin-2-yl)-5-methoxy-N,N-dimethylnicotinamide], for which the IC50 in assay [1] and in assay [2] was 1000 to 5000 nM throughout.

For `COc1cc(-c2cc3nccc(-c4ccc(NC5CCOCC5)c(C#N)c4)c3o2)ncc1C(=O)N(C)C` [Compound 392, 6-(7-[3-cyano-4-[(oxan-4-yl)amino]phenyl]furo[3,2-b]pyridin-2-yl)-4-methoxy-N,N-dimethylpyridine-3-carboxamide], the IC50 in assay [1] and in assay [2] was 100 to 1000 nM each time.

By IC50 is commonly meant the concentration at which inhibition is half-maximal.
